Values of other authors as cited in patent publication US20220117942A1, “COMBINATION THERAPY FOR THE TREATMENT OF PROSTATE CANCER” (Zenith Epigenetics Ltd., priority 2018, published 2022).

Test system: 2nd line mCRPC patients
Settings: enzalutamide alone, comparison value

SMILES: CNC(=O)c1ccc(N2C(=S)N(c3ccc(C#N)c(C(F)(F)F)c3)C(=O)C2(C)C)cc1F [enzalutamide]
- expected rPFS: 24-28 weeks
